Test results as given in ChEMBL document CHEMBL1201862, “PubChem BioAssay data set” (2004).
Activity calls are given as the source filed them. For most assays here, no stated cut-off is given here; in the data, actives have a measured EC50 and inactives only a lower limit.

Legend:
[1] = control 3'UTR Renilla luciferase suppression, dose response, counter-screen for Shn3 inhibitor project, cell-based, Clone20-Shn3RL, cherry-picked (AID 624133); type: functional
[2] = HepG2 cell cytotoxicity, dose response, cytotoxicity control for Shn3 inhibitor project, CellTiter-Glo, cherry-picked (AID 624134); type: functional, cell-based
[3] = Shn3 3'UTR reporter inhibitors, dose response, cell-based, Clone20 osteoblasts, firefly luciferase, cherry-picked (AID 624132); type: functional;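 further: firefly luciferase luminescence from reporter carrying the Shn3 3'UTR in osteoblasts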
[4] = C. albicans growth with fluconazole, confirmation, fluorescence, retest (AID 2467); type: functional, cell-based
[5] = NIH-3T3 fibroblast cytotoxicity, dose response, cytotoxicity control, cell-based, fluorescence, Alamar Blue, secondary assay (AID 2327); type: functional;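 further: NIH-3T3 mouse fibroblasts cultured with fluconazole at 8 µg/mL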
[6] = target: T1, High affinity choline transporter 1 (Homo sapiens, UniProt Q9GZV3); assay: CHT inhibitors, dose response, cell-based, 5-point CRC, membrane potential dye (AID 504840); type: functional
T1 sequence (Q9GZV3 whole entry): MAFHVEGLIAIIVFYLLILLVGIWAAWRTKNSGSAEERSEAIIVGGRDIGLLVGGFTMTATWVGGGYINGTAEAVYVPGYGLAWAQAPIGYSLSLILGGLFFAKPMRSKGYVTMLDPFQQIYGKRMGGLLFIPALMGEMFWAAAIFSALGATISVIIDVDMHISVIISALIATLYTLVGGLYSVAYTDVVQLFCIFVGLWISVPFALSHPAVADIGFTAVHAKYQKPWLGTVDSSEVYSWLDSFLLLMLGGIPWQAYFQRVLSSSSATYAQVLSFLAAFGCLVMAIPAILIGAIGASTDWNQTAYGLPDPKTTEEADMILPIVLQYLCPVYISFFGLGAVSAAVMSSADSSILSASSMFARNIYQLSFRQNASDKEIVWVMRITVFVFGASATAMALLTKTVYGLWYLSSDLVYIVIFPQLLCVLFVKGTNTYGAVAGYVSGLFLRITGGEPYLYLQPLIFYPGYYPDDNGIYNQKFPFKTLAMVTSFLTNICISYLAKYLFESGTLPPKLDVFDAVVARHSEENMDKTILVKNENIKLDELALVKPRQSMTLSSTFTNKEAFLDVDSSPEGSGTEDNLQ

[7] = target: Voltage-dependent T-type calcium channel subunit alpha-1H (Homo sapiens, UniProt O95180); type: functional;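 further: channel activity triggered by adding a high calcium stimulation buffer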
[8] = Luminescence Cell-Based Dose Confirmation HTS to Identify Activators of 5'UTR Stem-Loop Driven Alpha-Synuclein mRNA Translation in H4 Neuroglioblastoma Cells. [Related pubchem assays: 1829 (Project Summary), 1814 (Primary HTS)]; type: functional
[9] = Luminescence Cell-Based Dose Response HTS to Identify Activators of Luciferase Translation or Activity in H4 […] Cells. [Related pubchem assays: 1829 (Project Summary), 1814 (Primary HTS)]; type: functional
[10] = tested on: H4; assay: Luminescence Cell-Based Dose Response HTS to Identify Activators of 5'UTR Stem-Loop Driven Prion Protein mRNA Translation in H4 Neuroglioblastoma Cells. [Related pubchem assays: 1829 (Project Summary), 1814 (Primary HTS)]; type: functional; settings: Homo sapiens
[11] = tested on: BJ; assay: cytotoxicity toward BJ-TERT fibroblasts, dose response, cell-based, RAS-independent, luminescence (AID 1933); type: functional; settings: Homo sapiens
[12] = tested on: BJ; assay: cytotoxicity toward BJ-TERT-LT-ST fibroblasts, dose response, cell-based, RAS-independent, luminescence (AID 1935); type: functional; settings: Homo sapiens;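 further: BJ fibroblasts immortalized with TERT plus LT and ST oncogenes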
[13] = cytotoxicity toward DRD oncogenic fibroblasts, dose response, cell-based, non-viral oncogenic, luminescence (AID 1934); type: functional; settings: Homo sapiens
[14] = tested on: BJ; assay: cells; type: functional, cell-based; settings: Homo sapiens
[15] = inhibitors of intracellular T. cruzi replication, confirmation, NIH3T3 host cells, beta-gal luminescence (AID 2044); type: functional, cell-based;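 further: intracellular parasites grown in NIH/3T3 mouse fibroblasts as host cells; luminescent beta-galactosidase reporter signal from transgenic T. cruzi replicating inside host cells; inhibitors lower the luminescence signal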
[16] = cytotoxicity toward NIH3T3 fibroblasts, dose response, counter-screen, cell-based, ATP luminescence, mouse fibroblasts (AID 2010); type: functional;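 further: cells exposed to compound for about 90 hours before reading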
[17] = HEp-2 cell cytotoxicity, dose response, cytotoxicity control for RSV inhibitor project, HTS (AID 2410); type: functional; settings: human respiratory syncytial virus
[18] = target: Fatty acid synthase (Homo sapiens, UniProt P49327); assay: FAS thioesterase domain inhibitors, dose response, biochemical, kinetic fluorescence intensity (AID 624326); type: functional;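 further: rate of fluorescence rise from hydrolysis of a fluorogenic O-methyl fluorescein ester substrate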
[19] = target: Heat shock protein HSP 90-alpha (Homo sapiens, UniProt P07900); type: functional, organism-based
[20] = target: T2, Caspase-6 (Homo sapiens, UniProt P55212); assay: human caspase-6 inhibitors, dose response, biochemical, VEID-R110 fluorescence, cherry-pick (AID 720632)
T2 sequence (P55212 whole entry): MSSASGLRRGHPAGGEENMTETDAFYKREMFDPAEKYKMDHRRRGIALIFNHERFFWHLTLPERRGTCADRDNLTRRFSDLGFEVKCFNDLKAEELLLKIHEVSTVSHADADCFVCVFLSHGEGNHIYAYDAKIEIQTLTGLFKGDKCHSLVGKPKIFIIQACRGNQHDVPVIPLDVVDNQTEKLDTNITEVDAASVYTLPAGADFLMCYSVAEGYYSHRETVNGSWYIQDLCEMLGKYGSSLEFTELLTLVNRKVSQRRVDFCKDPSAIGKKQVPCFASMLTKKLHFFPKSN

[21] = target: T3, Microphthalmia-associated transcription factor (Homo sapiens, UniProt O75030); assay: TRPM1 promoter luciferase signal decrease, dose response, MITF inhibitor project, cell-based, SK-MEL-5, cherry-picked, set 3 (AID 493073); type: functional
T3 sequence (O75030 whole entry): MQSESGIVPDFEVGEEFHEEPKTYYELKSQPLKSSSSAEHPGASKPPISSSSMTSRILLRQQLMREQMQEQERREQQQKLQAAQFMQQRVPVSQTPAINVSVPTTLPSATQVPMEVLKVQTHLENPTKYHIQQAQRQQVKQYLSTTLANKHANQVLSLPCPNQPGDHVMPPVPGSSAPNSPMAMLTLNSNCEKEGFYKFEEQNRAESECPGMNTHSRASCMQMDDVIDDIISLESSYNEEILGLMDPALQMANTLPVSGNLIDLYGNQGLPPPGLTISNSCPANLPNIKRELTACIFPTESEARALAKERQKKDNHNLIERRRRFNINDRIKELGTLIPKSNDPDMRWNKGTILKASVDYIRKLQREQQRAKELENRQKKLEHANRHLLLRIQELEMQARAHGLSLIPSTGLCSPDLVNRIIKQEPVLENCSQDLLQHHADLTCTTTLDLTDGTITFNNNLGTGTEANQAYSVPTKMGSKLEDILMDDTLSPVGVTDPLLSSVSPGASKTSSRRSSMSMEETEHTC

[22] = tested on: Streptococcus; assay: Group A Streptococcus viability loss, dose response, counter-screen for streptokinase expression inhibitor project, luminescence, BacTiterGlo (AID 1915); type: functional, organism-based;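 further: potency for reduction of bacterial viability or growth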
[23] = tested on: Streptococcus sp. 'group A'; assay: growth inhibition of control SK(-) GAS strain, dose response, counter-screen for streptokinase expression inhibitor project, luminescence, kanamycin, BacTiterGlo, confirmation (AID 1900); type: functional, organism-based
[24] = target: T4, Streptokinase A (Streptococcus pyogenes serotype M1, UniProt P10520); assay: S. pyogenes streptokinase expression inhibitors, potency, dose response, plasminogen activation absorbance, OD405 (AID 1914); type: functional, Streptococcus pyogenes M1 GAS;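 further: secreted streptokinase activity via plasminogen activation per viability signal from cell pellet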
T4 sequence (P10520 whole entry): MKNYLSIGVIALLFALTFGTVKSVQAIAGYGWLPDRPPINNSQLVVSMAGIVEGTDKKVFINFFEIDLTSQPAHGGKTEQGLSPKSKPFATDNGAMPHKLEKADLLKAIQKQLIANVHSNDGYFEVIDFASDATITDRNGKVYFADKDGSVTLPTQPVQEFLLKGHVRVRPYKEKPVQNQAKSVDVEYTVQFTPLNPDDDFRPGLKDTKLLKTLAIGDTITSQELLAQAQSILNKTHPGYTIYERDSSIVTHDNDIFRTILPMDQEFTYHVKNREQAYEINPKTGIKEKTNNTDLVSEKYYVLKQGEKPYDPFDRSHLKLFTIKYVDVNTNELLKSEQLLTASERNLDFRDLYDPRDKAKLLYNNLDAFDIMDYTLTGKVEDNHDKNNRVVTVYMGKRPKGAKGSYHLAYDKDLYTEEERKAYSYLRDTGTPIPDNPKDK

[25] = HepG2 cell cytotoxicity, dose response, cytotoxicity control, plate reader, cherry-pick, antagonist series (AID 743416); type: functional, cell-based

Sequence of Voltage-dependent T-type calcium channel subunit alpha-1H (O95180 whole entry): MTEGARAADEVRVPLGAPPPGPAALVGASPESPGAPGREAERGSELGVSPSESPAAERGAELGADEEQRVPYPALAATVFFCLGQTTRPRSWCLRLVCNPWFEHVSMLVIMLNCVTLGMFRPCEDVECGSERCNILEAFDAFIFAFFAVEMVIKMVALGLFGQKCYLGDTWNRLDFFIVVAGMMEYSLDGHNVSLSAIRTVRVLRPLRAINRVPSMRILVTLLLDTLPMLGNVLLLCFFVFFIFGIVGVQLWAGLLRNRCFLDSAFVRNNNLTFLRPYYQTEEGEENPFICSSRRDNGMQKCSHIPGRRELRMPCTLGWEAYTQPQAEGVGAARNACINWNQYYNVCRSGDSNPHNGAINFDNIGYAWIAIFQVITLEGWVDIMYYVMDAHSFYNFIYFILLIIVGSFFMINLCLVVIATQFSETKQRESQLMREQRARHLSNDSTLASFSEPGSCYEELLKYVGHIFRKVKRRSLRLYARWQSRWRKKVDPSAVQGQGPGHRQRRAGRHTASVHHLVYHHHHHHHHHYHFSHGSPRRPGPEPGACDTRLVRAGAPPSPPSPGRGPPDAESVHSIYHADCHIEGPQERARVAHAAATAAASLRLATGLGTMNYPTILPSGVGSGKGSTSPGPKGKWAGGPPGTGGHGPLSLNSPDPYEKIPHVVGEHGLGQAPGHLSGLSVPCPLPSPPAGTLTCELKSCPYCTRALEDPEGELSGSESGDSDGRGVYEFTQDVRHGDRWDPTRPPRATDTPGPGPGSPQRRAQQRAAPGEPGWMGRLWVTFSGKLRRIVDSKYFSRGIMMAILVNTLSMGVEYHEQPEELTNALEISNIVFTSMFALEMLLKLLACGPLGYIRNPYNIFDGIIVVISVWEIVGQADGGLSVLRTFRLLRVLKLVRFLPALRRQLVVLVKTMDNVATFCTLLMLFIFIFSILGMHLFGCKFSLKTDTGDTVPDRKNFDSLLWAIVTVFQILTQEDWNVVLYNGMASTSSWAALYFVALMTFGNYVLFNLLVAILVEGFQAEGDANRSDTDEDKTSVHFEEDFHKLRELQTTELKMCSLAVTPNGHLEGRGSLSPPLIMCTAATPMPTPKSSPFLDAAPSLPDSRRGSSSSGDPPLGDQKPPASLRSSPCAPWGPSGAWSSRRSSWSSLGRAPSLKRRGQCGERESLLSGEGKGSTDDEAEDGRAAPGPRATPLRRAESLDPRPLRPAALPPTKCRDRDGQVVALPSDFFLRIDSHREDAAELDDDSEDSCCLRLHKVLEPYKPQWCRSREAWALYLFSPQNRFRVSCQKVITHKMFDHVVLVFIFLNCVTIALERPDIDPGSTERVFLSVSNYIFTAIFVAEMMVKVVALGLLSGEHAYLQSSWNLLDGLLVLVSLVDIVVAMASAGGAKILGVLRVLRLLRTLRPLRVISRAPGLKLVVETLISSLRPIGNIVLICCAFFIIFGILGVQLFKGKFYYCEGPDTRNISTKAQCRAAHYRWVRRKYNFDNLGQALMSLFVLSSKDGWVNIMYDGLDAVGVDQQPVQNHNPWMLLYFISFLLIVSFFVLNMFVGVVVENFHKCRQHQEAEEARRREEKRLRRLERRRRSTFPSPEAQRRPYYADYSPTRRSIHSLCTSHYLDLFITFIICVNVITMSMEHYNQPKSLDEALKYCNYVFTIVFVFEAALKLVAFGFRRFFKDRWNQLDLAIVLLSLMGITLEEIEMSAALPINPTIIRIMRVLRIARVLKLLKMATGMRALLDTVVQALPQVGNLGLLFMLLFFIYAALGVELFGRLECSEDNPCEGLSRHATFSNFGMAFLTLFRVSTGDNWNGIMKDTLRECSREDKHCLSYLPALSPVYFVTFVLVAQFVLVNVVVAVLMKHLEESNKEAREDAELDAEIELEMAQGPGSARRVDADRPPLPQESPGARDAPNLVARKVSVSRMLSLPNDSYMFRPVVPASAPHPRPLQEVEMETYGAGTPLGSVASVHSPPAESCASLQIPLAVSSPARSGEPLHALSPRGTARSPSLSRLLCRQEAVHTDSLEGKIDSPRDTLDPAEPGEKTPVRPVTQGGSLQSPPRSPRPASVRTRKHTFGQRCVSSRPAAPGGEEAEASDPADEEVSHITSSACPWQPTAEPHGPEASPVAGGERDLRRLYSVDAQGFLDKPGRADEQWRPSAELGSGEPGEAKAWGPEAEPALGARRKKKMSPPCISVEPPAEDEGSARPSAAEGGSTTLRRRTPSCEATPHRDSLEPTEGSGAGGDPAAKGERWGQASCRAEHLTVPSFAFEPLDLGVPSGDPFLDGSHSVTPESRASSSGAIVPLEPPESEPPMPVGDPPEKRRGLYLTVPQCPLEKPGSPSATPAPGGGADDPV
Sequence of Fatty acid synthase (P49327 whole entry, the tested form may be a part): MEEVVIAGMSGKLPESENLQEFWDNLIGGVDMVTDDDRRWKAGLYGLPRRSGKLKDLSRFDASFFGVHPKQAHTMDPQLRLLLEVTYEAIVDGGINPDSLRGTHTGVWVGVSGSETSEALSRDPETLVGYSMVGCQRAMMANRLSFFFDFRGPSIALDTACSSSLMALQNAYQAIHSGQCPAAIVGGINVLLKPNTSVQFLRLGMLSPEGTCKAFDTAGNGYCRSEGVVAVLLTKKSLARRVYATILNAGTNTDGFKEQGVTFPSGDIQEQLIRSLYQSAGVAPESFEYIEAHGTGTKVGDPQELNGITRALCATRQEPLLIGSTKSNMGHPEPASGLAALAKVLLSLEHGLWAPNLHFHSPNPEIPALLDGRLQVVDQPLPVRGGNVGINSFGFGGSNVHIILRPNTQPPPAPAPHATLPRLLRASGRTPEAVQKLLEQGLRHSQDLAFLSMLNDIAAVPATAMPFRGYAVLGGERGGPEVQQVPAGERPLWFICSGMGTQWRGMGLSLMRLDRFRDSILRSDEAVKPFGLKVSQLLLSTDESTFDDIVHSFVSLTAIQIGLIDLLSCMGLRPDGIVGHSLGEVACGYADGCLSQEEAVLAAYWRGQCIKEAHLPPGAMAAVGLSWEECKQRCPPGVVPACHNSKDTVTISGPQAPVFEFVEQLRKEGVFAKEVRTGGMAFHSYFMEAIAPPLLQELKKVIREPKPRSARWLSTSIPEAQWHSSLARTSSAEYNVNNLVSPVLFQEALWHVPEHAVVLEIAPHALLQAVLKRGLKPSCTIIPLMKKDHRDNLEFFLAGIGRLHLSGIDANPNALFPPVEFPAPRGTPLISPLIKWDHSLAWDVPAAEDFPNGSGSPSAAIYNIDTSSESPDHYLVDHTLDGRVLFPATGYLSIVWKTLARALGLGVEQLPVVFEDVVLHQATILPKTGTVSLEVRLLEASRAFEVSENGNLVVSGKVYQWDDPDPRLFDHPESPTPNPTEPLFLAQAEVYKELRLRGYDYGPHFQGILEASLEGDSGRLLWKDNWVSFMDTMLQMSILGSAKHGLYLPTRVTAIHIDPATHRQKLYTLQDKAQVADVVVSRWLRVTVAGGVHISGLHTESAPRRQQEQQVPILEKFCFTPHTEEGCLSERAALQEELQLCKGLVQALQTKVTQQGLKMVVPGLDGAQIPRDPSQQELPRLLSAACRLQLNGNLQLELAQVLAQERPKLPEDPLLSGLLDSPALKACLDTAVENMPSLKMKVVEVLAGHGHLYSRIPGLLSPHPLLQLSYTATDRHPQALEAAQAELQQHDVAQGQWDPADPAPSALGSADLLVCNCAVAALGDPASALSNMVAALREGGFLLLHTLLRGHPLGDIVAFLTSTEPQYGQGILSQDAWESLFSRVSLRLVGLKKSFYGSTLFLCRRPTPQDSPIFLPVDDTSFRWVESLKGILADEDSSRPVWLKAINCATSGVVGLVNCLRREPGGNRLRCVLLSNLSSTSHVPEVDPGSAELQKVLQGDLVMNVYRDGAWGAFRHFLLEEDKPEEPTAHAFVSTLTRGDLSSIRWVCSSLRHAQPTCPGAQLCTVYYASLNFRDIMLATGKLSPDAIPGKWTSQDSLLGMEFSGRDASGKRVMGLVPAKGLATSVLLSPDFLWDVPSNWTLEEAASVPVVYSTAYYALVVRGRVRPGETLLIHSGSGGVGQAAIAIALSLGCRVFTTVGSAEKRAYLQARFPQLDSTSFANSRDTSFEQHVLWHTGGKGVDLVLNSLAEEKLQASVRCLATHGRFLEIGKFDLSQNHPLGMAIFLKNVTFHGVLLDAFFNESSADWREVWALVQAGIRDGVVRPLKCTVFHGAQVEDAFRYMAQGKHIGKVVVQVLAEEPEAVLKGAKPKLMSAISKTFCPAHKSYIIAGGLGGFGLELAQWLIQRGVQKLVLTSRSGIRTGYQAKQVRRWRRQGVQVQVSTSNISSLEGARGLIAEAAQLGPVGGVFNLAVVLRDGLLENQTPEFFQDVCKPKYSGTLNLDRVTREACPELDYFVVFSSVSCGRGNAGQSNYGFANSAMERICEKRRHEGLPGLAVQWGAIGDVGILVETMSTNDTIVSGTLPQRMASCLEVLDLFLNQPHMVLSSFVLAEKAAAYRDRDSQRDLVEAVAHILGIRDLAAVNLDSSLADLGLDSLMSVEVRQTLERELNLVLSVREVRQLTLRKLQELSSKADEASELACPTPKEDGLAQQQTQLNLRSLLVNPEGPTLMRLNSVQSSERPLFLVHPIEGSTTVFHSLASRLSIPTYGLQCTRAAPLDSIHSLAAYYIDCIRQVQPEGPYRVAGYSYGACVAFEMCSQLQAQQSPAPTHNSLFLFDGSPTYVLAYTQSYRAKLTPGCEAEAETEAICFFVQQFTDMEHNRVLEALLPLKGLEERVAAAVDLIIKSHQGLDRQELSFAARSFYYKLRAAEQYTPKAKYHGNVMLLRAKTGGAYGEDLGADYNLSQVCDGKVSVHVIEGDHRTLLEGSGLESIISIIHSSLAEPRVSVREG

Compound: Cc1cc2c(cc(C(=O)N3CCC(C(=O)NC4CCCC4)CC3)n2Cc2c(F)cccc2Cl)o1
- AC50 [1]: 10 µM (active)
- AC50 [2]: 49.4 µM (active)
- AC50 [3]: 4.81 µM (active)

Compound: Cc1cc(Sc2nc(N)ncc2[N+](=O)[O-])ncn1
- EC50 [4]: 0.746 µM (active)
- EC50 [5]: 4.19 µM (inconclusive)

Compound: O=C(Nc1ccc(S(=O)(=O)NC2=NCCCCC2)cc1)c1ccc(C(F)(F)F)cc1
- IC50 [6]: 11.8 µM (active)

Compound: CC(NC(=O)CCC(=O)NC(C)C1COc2ccccc2O1)C1COc2ccccc2O1 (stereo unspecified)
- EC50 [7]: 4.07 µM (active)

Compound: Cc1ccc(C(CC(=O)NCc2ccco2)c2ccc(OC(C)C)cc2)cc1 (stereo unspecified)
- EC50 [7]: 15.9 µM (active)

Compound: O=C(NCc1ccco1)c1cc2c(s1)CCCCC2
- EC50 [8]: 34 µM (active)
- EC50 [9]: 41.9 µM (active)
- EC50 [10]: > 120 µM (not active)

Compound: CC(=O)c1ccc(Oc2ccc(C(=O)c3ccc(C)c(C)c3)cc2[N+](=O)[O-])cc1
- EC50 [11]: 26.4 µM (active)
- EC50 [12]: > 150 µM (not active)
- EC50 [13]: > 150 µM (inconclusive)
- EC50 [14]: > 150 µM (not active)

Compound: CN1CCC(=NNC(=O)C(=O)Nc2ccc(F)cc2)CC1
- EC50 [8]: 14.5 µM (active)
- EC50 [9]: 23.6 µM (active)
- EC50 [10]: 15 µM (active)

Compound: O=C(Nc1cccc(C(=O)N2CCCCC2)c1)c1ccccc1Br
- IC50 [6]: 16.8 µM (active)

Compound: O=S(=O)(c1ccc(-c2csc(-c3cccnc3)n2)cc1)N1CCCCC1
- EC50 [15]: 1.89 µM (active)
- EC50 [16]: > 30 µM (not active)
- CC50 [17]: 40.1 µM (active)
- IC50 [18]: 3.65 µM (active)

Compound: O=C(OCC(=O)N1CCCC1=O)c1nc(Cl)c(Cl)c(Cl)c1Cl
- EC50 [8]: 14.4 µM (active)
- EC50 [9]: > 120 µM (not active)
- EC50 [10]: > 120 µM (not active)

Compound: O=C(Nc1cccc(NC(=O)c2ccc(-c3ccc(Br)cc3)o2)c1)c1ccccc1
- EC50 [7]: 19.1 µM (active)

Compound: COc1ccc(-c2noc(CCC(=O)N3CCN(c4cc(C)ccc4C)CC3)n2)cc1
- EC50 [7]: 3.63 µM (active)

Compound: CC(CCc1ccccc1)NC(=O)c1ccc(Br)cc1 (stereo unspecified)
- AC50 [19]: 2.6 µM (active)

Compound: Cc1ccc(-c2nnc(SCC(C)C)n2C)cc1
- EC50 [8]: 11.5 µM (active)
- EC50 [9]: 88.6 µM (active)
- EC50 [10]: 10.1 µM (active)

Compound: Cc1nc2c(-c3ccc(F)cc3)c(C)nn2c(C)c1CCC(=O)N1CCN(c2ccc(F)cc2)CC1
- EC50 [7]: 5.21 µM (active)

Compound: Cc1cc(-c2ccccc2)n(-c2ccc(C(=O)N3CCN(c4ncccn4)CC3)cc2)n1
- IC50 [6]: 8.32 µM (active)

Compound: CCC(NCCc1ccccc1)=C1C(=O)N(C)C(=O)N(C)C1=O
- IC50 [6]: 13.8 µM (active)

Compound: O=C(COC(=O)c1ccc([N+](=O)[O-])o1)Nc1ncc(Cl)cc1Cl
- AC50 [20]: 28.3 µM (active)

Compound: O=C(c1ccc([N+](=O)[O-])s1)N1CCN(c2ccccn2)CC1
- AC50 [21]: 12.2 µM (active)

Compound: CCSc1nc2ccccc2n1CCOc1ccccc1
- EC50 [7]: 18.2 µM (active)

Compound: Cc1ccc(C(=O)Cn2c(-c3ccccc3)noc2=O)cc1
- EC50 [8]: 13.1 µM (active)
- EC50 [9]: 12.4 µM (active)
- EC50 [10]: 15 µM (active)

Compound: O=C(O)CSc1nc2sc3c(c2c(=O)n1Cc1ccccc1)CCCCC3
- EC50 [8]: > 60 µM (not active)
- EC50 [9]: 15.6 µM (active)
- EC50 [10]: 16.4 µM (active)

Compound: CC(C)OC(=O)c1cccc(-c2ccc(C=O)o2)c1
- IC50 [6]: 14.5 µM (active)

Compound: O=C(Nc1cc([N+](=O)[O-])ccc1O)c1ccc2c(c1)C(=O)N(Cc1ccco1)C2=O
- AC50 [20]: 18.5 µM (active)

Compound: COc1ccc(Cl)cc1N=C(N)Nc1nc(O)cc(CSc2ccc(C)cc2)n1
- AC50 [1]: 21.5 µM (active)
- AC50 [2]: > 70 µM (inactive)
- AC50 [3]: 1.82 µM (active)

Compound: COc1ccc(-n2c(C)cc(/C=C/c3nc(O)c([N+](=O)[O-])c(O)n3)c2C)cc1
- AC50 [20]: 18.8 µM (active)

Compound: O=C(C=Cc1cccc(O)c1)c1ccccc1O
- AC50 [19]: 2.81 µM (active)

Compound: [O-][n+]1c2ccccc2[n+]([O-])c2cc(O)ccc21
- EC50 [22]: 17.3 µM (active)
- EC50 [23]: 7.97 µM (active)
- EC50 [24]: > 150 µM (not active)
- AC50 [20]: 6.89 µM (active)

Compound: CCN(Cc1ccncc1)C(=O)c1cc(COc2ccc(F)cc2Cl)on1
- IC50 [6]: 13.2 µM (active)

Compound: Cc1ccc(S(=O)(=O)N2CCCc3nc(-c4ccc(F)cc4)ccc32)cc1
- AC50 [25]: > 52 µM (inactive)

Compound: CCCCC/C=C\C/C=C\C/C=C\CCCCC(=O)O [GAMOLENIC ACID]
- AC50 [20]: 0.505 µM (active)

Compound: CC1CCC(NC(=O)N(CCCl)N=O)CC1 (stereo unspecified) [SEMUSTINE]
- EC50 [8]: 5.98 µM (active)
- EC50 [9]: 24 µM (active)
- EC50 [10]: 16.2 µM (active)
